From paper PMC7481197, “Uncovering the cytochrome P450-catalyzed methylenedioxy bridge formation in streptovaricins biosynthesis” (Nature Communications, 2020)

Experiments:
Format in all cases: biochemical
StvP2 [1] = target: T1, StvP2 (Streptomyces spectabilis, UniProt A0A286SBY7); assay: HPLC-DAD product formation, modified Hill equation fit; conditions: spinach Fdx/FdR, 4 mM NADPH, 50 mM Tris-HCl pH 7.5, 28 °C, 4 min; ascending arm of substrate-inhibition curve; read-out: Ks
T1 construct: N-terminal 6xHis tag, eight amino acids between tag and StvP2 removed, expressed in E. coli C43(DE3); heme-containing (Cys349 ligand); one molecule per asymmetric unit when substrate-free
T1 sequence (A0A286SBY7 entry or part of it): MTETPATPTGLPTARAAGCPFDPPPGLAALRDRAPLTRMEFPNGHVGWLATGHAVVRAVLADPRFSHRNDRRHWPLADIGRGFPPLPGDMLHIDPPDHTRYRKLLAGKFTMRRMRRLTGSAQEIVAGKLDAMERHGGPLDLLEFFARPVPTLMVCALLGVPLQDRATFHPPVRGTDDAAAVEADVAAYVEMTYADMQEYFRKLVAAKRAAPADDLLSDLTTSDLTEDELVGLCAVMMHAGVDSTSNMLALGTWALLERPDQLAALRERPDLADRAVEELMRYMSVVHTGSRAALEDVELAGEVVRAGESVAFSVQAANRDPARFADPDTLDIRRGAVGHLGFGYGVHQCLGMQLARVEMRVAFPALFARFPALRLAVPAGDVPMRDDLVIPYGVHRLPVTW

StvP2 [2] = target: T1, StvP2; assay: as above; conditions: spinach Fdx/FdR, 4 mM NADPH, 50 mM Tris-HCl pH 7.5, 28 °C, 4 min; substrate inhibition, descending arm
StvM1 = target: T2, StvM1 (Streptomyces spectabilis, UniProt A0A286SC47); assay: LC-ESI-HRMS conversion of […] to […]; conditions: methyl donor; 100 μM damavaricin C, 50 mM Tris-HCl pH 7.5, 28 °C, 3 h
T2 construct: N-terminal 6xHis tag, pET28a(+) NdeI/EcoRI, expressed in E. coli BL21(DE3)
T2 sequence (A0A286SC47 1-202): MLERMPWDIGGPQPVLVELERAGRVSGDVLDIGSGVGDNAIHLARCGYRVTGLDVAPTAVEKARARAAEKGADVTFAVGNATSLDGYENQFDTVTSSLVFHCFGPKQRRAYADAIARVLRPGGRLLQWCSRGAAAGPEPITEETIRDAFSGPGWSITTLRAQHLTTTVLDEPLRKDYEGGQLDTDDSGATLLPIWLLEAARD

Molecule | Km (StvP2 [1]) [µM] | Ki (StvP2 [2]) [µM] | LC-ESI-HRMS conversion of 7 to 8 (StvM1)
6-methoxy-streptovaricin D [compound 6] | 67.4 ± 28.4 | 288.50 ± 122.60 | 
6-methoxy-streptovaricin H [compound 4] | 95.6 ± 30.8 | 399.35 ± 122.10 | 
C[S+](CC[C@H](N)C(=O)O)C[C@H]1O[C@@H](n2cnc3c(N)ncnc32)[C@H](O)[C@@H]1O (stereo partly shown) [SAM] |  |  | using SAM as methyl donor
COC(=O)[C@@H]1[C@H](O)[C@H](C)[C@H](O)[C@H](C)/C=C\C=C(/C)C(=O)Nc2c(C)c(OC(C)=O)c3c(c(OC)c(C)c(O)c3c2O)C(=O)/C(C)=C/[C@@](C)(O)[C@H](O)[C@@H](C)[C@H]1O [compound 2, 6-methoxy-streptovaricin C] | 110 ± 46.2 | 367.30 ± 128.57 | 
